These results are taken from paper PMC8664850, “Design, synthesis, and biological evaluation of novel urolithins derivatives as potential phosphodiesterase II inhibitors” (Scientific Reports, 2021).

In series [1] the target is T1, Phosphodiesterase II (PDE2) (Homo sapiens, UniProt O00408).
T1 construct: the recombinant plasmid pET15b-PDE2A (580–941) was donated; made in house; host or cells: E. coli BL21-Codon Plus (DE3)
Nature of the series: PDE2 enzyme inhibitory activity, AlphaScreen cAMP kit method. The format is biochemical. Particulars: in vitro, enzyme level, seven concentrations, mean of at least three experiments. (In general: Alpha assays give light when donor and acceptor beads are brought close together.)
Text: The AlphaScreen kit method was used to detect PDE2 inhibitory activity of the 27 synthesized compounds (2a–n and 4a–m) in vitro, each diluted at seven concentrations, and each carried out with three sets of parallel experiments. The IC50 values were obtained by fitting calculations using software Graphpad Prism 7.

pIC50: −log10 of the molar value.

T1 sequence (O00408 580-941): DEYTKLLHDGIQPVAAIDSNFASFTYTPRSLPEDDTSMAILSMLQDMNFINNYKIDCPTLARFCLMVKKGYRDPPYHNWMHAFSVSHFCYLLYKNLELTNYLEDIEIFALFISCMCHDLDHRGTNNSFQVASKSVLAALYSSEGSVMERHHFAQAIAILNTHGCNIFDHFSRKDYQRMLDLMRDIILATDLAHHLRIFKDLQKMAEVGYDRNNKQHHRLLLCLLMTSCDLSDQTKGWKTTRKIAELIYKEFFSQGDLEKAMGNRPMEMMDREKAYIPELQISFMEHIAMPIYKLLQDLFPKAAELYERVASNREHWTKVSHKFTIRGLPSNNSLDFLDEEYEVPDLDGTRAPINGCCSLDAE

For `Cc1ccc2c(c1)c(=O)oc1cc(O)ccc12` [Compound 1, 3-hydroxy-8-methyl-6H-benzo [C]chromen-6-one], the pIC50 (usually the IC50 on a negative log10 scale, so that one unit is a factor of ten) in series [1] is below 4.00. Consider `CCOc1ccc2c(c1)oc(=O)c1cc(C)ccc12` [Compound 2a, 3-ethoxy-8-methyl-6H-benzo[c]chromen-6-one], for which, in series [1], the pIC50 is below 4.00. Turning to `CCCOc1ccc2c(c1)oc(=O)c1cc(C)ccc12` [Compound 2b, 8-methyl-3-propoxy-6H-benzo[c]chromen-6-one], the melting point (in general, the temperature, or range, at which the solid turns liquid) fell in the range of 112.3 to 112.6 °C. In series [1], the pIC50 was below 4.00. The corresponding values for `Cc1ccc2c(c1)c(=O)oc1cc(OC(C)C)ccc12` [Compound 2c, 3-isopropoxy-8-methyl-6H-benzo[c]chromen-6-one] are 102.3 to 103 °C and below 4.00. The corresponding values for `CCC(C)Oc1ccc2c(c1)oc(=O)c1cc(C)ccc12` (centres unmarked) [Compound 2d, 3-(sec-butoxy)-8-methyl-6H-benzo[c]chromen-6-one] are 62.6 to 63.4 °C and below 4.00. Consider `CCCCCOc1ccc2c(c1)oc(=O)c1cc(C)ccc12` [Compound 2e, 8-methyl-3-(pentyloxy)-6H-benzo[c]chromen-6-one], for which the pIC50 in series [1] is 4.47. `Cc1ccc2c(c1)c(=O)oc1cc(OCC3CCCC3)ccc12` [Compound 2f, 3-(cyclopentylmethoxy)-8-methyl-6H-benzo[c]chromen-6-one] returned a melting point of 122.8 to 123.6 °C. The same molecule showed a pIC50 in series [1] below 4.00. The corresponding values for `Cc1ccc2c(c1)c(=O)oc1cc(OCC3CCCO3)ccc12` (centres unmarked) [Compound 2g, 8-methyl-3-((tetrahydrofuran-2-yl)methoxy)-6H-benzo[c]chromen-6-one] are 122.8 to 123.6 °C and below 4.00.

Molecule `Cc1ccc2c(c1)c(=O)oc1cc(OCC3OCCO3)ccc12` [Compound 2h, 3-((1,3-dioxolan-2-yl)methoxy)-8-methyl-6H-benzo[c]chromen-6-one] had a melting point of 148.2 to 148.8 °C. In series [1], this molecule showed a pIC50 below 4.00. The molecule `Cc1ccc2c(c1)c(=O)oc1cc(OCCC3OCCO3)ccc12` [Compound 2i, 3-(2-(1,3-dioxolan-2-yl)ethoxy)-8-methyl-6H-benzo[c]chromen-6-one] had a pIC50 in series [1] below 4.00. `Cc1ccc2c(c1)c(=O)oc1cc(OCC3CCCCC3)ccc12` [Compound 2j, 3-(cyclohexylmethoxy)-8-methyl-6H-benzo[c]chromen-6-one] returned a melting point of 113.3 to 115.1 °C. The molecule also showed a pIC50 in series [1] of 4.18. The corresponding values for `Cc1ccc2c(c1)c(=O)oc1cc(OCC3CCOCC3)ccc12` [Compound 2k, 8-methyl-3-((tetrahydro-2H-pyran-4-yl)methoxy)-6H-benzo[c]chromen-6-one] are 148 to 148.6 °C and below 4.00.

Molecule `Cc1ccc2c(c1)c(=O)oc1cc(OCc3ccccc3F)ccc12` [Compound 2l, 3-((2-fluorobenzyl)oxy)-8-methyl-6H-benzo[c]chromen-6-one] had a melting point of 154.9 to 155.5 °C. Further, the pIC50 in series [1] was below 4.00. The corresponding values for `Cc1ccc2c(c1)c(=O)oc1cc(OCCC3OCCCO3)ccc12` [Compound 2m, 3-(2-(1,3-dioxan-2-yl)ethoxy)-8-methyl-6H-benzo[c]chromen-6-one] are 170.1 to 172 °C and below 4.00. The corresponding values for `COc1cc(COc2ccc3c(c2)oc(=O)c2cc(C)ccc23)cc(OC)c1` [Compound 2n, 3-((3,5-dimethoxybenzyl)oxy)-8-methyl-6H-benzo[c]chromen-6-one] are 158.7 to 160.2 °C and below 4.00.

For `O=c1oc2cc(O)ccc2c2c1CCCC2` [Compound 3, 3-Hydroxy-7,8,9,10-tetrahydro-6H-benzo[c]chromen-6-one], the pIC50 in series [1] is 4.03. In turn, `CCOc1ccc2c3c(c(=O)oc2c1)CCCC3` [Compound 4a, 3-ethoxy-7,8,9,10-tetrahydro-6H-benzo[c]chromen-6-one] returned a melting point of 104.2 to 105.6 °C. For the same molecule, the pIC50 in series [1] was below 4.00. The corresponding values for `CCCOc1ccc2c3c(c(=O)oc2c1)CCCC3` [Compound 4b, 3-propoxy-7,8,9,10-tetrahydro-6H-benzo[c]chromen-6-one] are 107.1 to 108.3 °C and below 4.00. The corresponding values for `CC(C)Oc1ccc2c3c(c(=O)oc2c1)CCCC3` [Compound 4c, 3-isopropoxy-7,8,9,10-tetrahydro-6H-benzo[c]chromen-6-one] are 85.4 to 87.5 °C and 4.46. The corresponding values for `CCC(C)Oc1ccc2c3c(c(=O)oc2c1)CCCC3` (centres unmarked) [Compound 4d, 3-(sec-butoxy)-7,8,9,10-tetrahydro-6H-benzo[c]chromen-6-one] are 74 to 74.2 °C and below 4.00. Molecule `CCCCCOc1ccc2c3c(c(=O)oc2c1)CCCC3` [Compound 4e, 3-(pentyloxy)-7,8,9,10-tetrahydro-6H-benzo[c]chromen-6-one] came in with a melting point of 110.6 to 112.4 °C. In series [1], the pIC50 was below 4.00. The corresponding values for `O=c1oc2cc(OCC3CCCO3)ccc2c2c1CCCC2` (centres unmarked) [Compound 4f, 3-((tetrahydrofuran-2-yl)methoxy)-7,8,9,10-tetrahydro-6H-benzo[c]chromen-6-one] are 112.2 to 114 °C and below 4.00. The corresponding values for `O=c1oc2cc(OCC3OCCO3)ccc2c2c1CCCC2` [Compound 4g, 3-((1,3-dioxolan-2-yl)methoxy)-7,8,9,10-tetrahydro-6H-benzo[c]chromen-6-one] are 128.1 to 129.5 °C and below 4.00.

`O=c1oc2cc(OCCC3OCCO3)ccc2c2c1CCCC2` [Compound 4h, 3-(2-(1,3-dioxolan-2-yl)ethoxy)-7,8,9,10-tetrahydro-6H-benzo[c]chromen-6-one]: the melting point was in the range of 111 to 112.3 °C. The molecule further gave a pIC50 in series [1] below 4.00. In turn, `O=c1oc2cc(OCC3CCCCC3)ccc2c2c1CCCC2` [Compound 4i, 3-(cyclohexylmethoxy)-7,8,9,10-tetrahydro-6H-benzo[c]chromen-6-one] gave a melting point of 107.2 to 109.3 °C. Further, in series [1], the pIC50 is below 4.00.

Consider `O=c1oc2cc(OCC3CCOCC3)ccc2c2c1CCCC2` [Compound 4j, 3-((tetrahydro-2H-pyran-4-yl)methoxy)-7,8,9,10-tetrahydro-6H-benzo[c]chromen-6-one], for which the melting point lay in the range of 124.6 to 125.2 °C. The negative-log IC50 (pIC50) in series [1] was below 4.00. The corresponding values for `O=c1oc2cc(OCCC3OCCCO3)ccc2c2c1CCCC2` [Compound 4k, 3-(2-(1,3-dioxan-2-yl)ethoxy)-7,8,9,10-tetrahydro-6H-benzo[c]chromen-6-one] are 107.5 to 108.4 °C and below 4.00. The corresponding values for `O=c1oc2cc(OCc3ccccc3F)ccc2c2c1CCCC2` [Compound 4l, 3-((2-fluorobenzyl)oxy)-7,8,9,10-tetrahydro-6H-benzo[c]chromen-6-one] are 124.2 to 125.6 °C and below 4.00.

`COc1cc(COc2ccc3c4c(c(=O)oc3c2)CCCC4)cc(OC)c1` [Compound 4m, 3-((3,5-dimethoxybenzyl)oxy)-7,8,9,10-tetrahydro-6H-benzo[c]chromen-6-one] gave a melting point of 98.5 to 99.2 °C. In addition, the pIC50 in series [1] was below 4.00.
